Measured values published in patent publication US20240165282A1, “CONFORMATIONAL CONSTRAINED SOMATOSTATIN RECEPTOR 3 PEPTIDE LIGANDS AND THEIR CONJUGATES AND USES THEREOF” (STARGET PHARMA LTD., priority 2021, published 2024).
*1 amine or outer side, *2 acyl side, *3 side chain or, on linkers, in order; H or OH if unused. Where a SMILES comes first, the peptide text is derived from it. Bridges are numbered along the chain shown (N, C = ends). [ ]: non-standard residue; d: D form. The star is where a group is joined. DOTA = O=C(O)CN1CCN(CC(=O)O)CCN(CC(=O)*)CCN(CC(=O)O)CC1; N(2-mercaptoethyl)Gly = O=C(CN(CCS[*:3])[*:1])[*:2]

Key:
hSSTR-4 = biological target: T1, hSSTR-4 (Homo sapiens, UniProt P31391); assay: Radioligand binding, displacement of 125I-Tyr11-SRIF-14
T1 construct: host or cells: Chem-1 (Rat ChemiSCREEN) cells, membrane preparation
T1 sequence (P31391 whole entry): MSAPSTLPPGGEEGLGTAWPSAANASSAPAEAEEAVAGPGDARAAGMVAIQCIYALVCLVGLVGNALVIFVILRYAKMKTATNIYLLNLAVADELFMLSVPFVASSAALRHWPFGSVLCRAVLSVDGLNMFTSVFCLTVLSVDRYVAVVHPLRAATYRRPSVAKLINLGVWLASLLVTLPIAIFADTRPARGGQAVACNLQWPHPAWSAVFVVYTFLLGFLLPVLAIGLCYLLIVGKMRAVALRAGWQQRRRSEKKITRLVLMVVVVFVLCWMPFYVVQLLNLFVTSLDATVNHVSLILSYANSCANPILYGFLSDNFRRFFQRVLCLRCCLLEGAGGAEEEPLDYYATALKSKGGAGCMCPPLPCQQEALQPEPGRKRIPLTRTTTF
Outline: (§1)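 Assays ran at 25 °C in 25 mM HEPES pH 7.4 with 5 mM MgCl2, 1 mM CaCl2, 0.1% BSA and 1% DMSO. Filter-bound radioactivity gave IC50 by nonlinear least-squares regression.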

5-HT1B (h) = biological target: T2, 5-HT1B (h) (Homo sapiens, UniProt P28222); assay: Cerep off-target radioligand binding; settings: 1 micromolar; antagonist radioligand; read-out: % Activity: Inhibition of Control Specific Binding
T2 construct: Eurofins Cerep (contract assay)
Procedure: (§2) In this example, off-target interactions for SEQ ID NO.
(§3) The assays were performed by Eurofins Cerep (Celle 1'Evescault, France). Compound binding was calculated as a % inhibition of the binding of a radioactively labeled ligand specific for each target. Compound enzyme inhibition effect was calculated as a % inhibition of control enzyme activity. In each experiment and if applicable, the respective reference compound was tested concurrently with SEQ ID NO. 3, and the data were compared with historical values determined at Eurofins. The experiment was accepted in accordance with Eurofins validation Standard Operating Procedure. Results showing an inhibition (or stimulation for assays run in basal conditions) higher than 50% are considered to represent significant effects of the test compounds.

5-HT2A (h) = biological target: T3, 5-HT2A (h) (Homo sapiens, UniProt P28223); assay: Cerep off-target radioligand binding; settings: 1 micromolar; agonist radioligand; read-out: % Activity: Inhibition of Control Specific Binding
T3 construct: Eurofins Cerep (contract assay)
T3 sequence (P28223 whole entry): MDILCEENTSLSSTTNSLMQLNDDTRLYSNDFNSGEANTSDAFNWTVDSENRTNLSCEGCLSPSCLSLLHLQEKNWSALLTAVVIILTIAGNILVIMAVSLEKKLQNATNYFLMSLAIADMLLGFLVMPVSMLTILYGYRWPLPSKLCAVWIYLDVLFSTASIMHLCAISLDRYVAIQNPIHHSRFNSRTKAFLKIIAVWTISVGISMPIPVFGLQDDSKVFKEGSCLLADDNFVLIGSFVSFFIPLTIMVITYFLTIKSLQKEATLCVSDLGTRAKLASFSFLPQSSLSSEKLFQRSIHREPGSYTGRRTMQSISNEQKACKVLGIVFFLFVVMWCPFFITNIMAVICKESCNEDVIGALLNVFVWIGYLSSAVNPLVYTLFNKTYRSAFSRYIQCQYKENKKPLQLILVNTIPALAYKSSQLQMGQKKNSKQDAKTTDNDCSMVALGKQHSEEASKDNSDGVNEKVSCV
Procedure: as §2, §3

5-HT2B (h) = biological target: T4, 5-HT2B (h) (Homo sapiens, UniProt P41595); assay: Cerep off-target radioligand binding; settings: 1 micromolar; agonist radioligand; read-out: % Activity: Inhibition of Control Specific Binding
T4 construct: Eurofins Cerep (contract assay)
T4 sequence (P41595 whole entry): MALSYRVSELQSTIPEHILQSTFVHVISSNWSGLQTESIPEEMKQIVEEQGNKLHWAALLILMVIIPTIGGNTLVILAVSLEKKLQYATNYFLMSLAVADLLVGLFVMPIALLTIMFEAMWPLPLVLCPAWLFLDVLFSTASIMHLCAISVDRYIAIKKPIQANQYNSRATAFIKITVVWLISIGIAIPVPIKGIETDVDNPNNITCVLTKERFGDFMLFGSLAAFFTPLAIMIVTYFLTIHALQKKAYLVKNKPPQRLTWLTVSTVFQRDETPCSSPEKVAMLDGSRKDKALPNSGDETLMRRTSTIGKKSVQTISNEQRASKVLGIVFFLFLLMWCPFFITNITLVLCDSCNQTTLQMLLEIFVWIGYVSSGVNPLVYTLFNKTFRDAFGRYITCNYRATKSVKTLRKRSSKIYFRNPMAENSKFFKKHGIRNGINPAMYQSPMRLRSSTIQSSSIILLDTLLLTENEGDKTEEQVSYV
Procedure: as §2, §3

5-HT3 (h) = biological target: T5, 5-HT3 (h) (Homo sapiens, UniProt P46098); assay: Cerep off-target radioligand binding; settings: 1 micromolar; antagonist radioligand; read-out: % Activity: Inhibition of Control Specific Binding
T5 construct: Eurofins Cerep (contract assay)
Procedure: as §2, §3

CB2 (h) = CB2 (h) (Homo sapiens, UniProt P34972); assay: Cerep off-target radioligand binding; settings: 1 micromolar; agonist radioligand; read-out: % Activity: Inhibition of Control Specific Binding
Procedure: as §2, §3

CCK1 (CCKA) (h) = CCK1 (CCKA) (h) (Homo sapiens, UniProt P32238); assay: Cerep off-target radioligand binding; settings: 1 micromolar; agonist radioligand; read-out: % Activity: Inhibition of Control Specific Binding
Procedure: as §2, §3

D2S (h) = D2S (h) (Homo sapiens, UniProt P14416); assay: Cerep off-target radioligand binding; settings: 1 micromolar; agonist radioligand; read-out: % Activity: Inhibition of Control Specific Binding
Procedure: as §2, §3

ETA (h) = ETA (h) (Homo sapiens, UniProt P25101); assay: Cerep off-target radioligand binding; settings: 1 micromolar; agonist radioligand; read-out: % Activity: Inhibition of Control Specific Binding
Procedure: as §2, §3

M1 (h) = M1 (h) (Homo sapiens, UniProt P11229); assay: Cerep off-target radioligand binding; settings: 1 micromolar; antagonist radioligand; read-out: % Activity: Inhibition of Control Specific Binding
Procedure: as §2, §3

[1] = biological target: N neuronal alpha 4beta 2 (h) (Homo sapiens, UniProt P17787+P43681); assay: Cerep off-target radioligand binding; settings: 1 micromolar; agonist radioligand; read-out: % Activity: Inhibition of Control Specific Binding
Procedure: as §2, §3

beta 1 (h) = beta 1 (h) (Homo sapiens, UniProt P08588); assay: Cerep off-target radioligand binding; settings: 1 micromolar; agonist radioligand; read-out: % Activity: Inhibition of Control Specific Binding
beta 1 (h), sequence (P08588 whole entry): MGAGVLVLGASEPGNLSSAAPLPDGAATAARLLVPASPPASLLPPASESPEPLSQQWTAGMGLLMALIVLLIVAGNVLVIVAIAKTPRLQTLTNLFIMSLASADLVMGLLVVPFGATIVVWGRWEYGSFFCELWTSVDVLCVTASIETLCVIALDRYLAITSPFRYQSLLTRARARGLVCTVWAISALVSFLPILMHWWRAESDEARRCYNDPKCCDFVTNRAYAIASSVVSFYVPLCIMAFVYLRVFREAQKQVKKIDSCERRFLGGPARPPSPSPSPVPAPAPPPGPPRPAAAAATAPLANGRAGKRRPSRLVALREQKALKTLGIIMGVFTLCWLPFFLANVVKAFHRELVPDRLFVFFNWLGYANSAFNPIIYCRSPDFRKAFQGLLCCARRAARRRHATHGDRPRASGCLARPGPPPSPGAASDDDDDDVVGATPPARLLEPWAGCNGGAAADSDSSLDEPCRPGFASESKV
Procedure: as §2, §3

beta 2 (h) = beta 2 (h) (Homo sapiens, UniProt P07550); assay: Cerep off-target radioligand binding; settings: 1 micromolar; antagonist radioligand; read-out: % Activity: Inhibition of Control Specific Binding
Procedure: as §2, §3

dopamine transporter (h) = biological target: T6, dopamine transporter (h) (Homo sapiens, UniProt Q01959); assay: Cerep off-target radioligand binding; settings: 1 micromolar; antagonist radioligand; read-out: % Activity: Inhibition of Control Specific Binding
T6 construct: Eurofins Cerep (contract assay)
Procedure: as §2, §3

kappa (h) (KOP) = kappa (h) (KOP) (Homo sapiens, UniProt P41145); assay: Cerep off-target radioligand binding; settings: 1 micromolar; agonist radioligand; read-out: % Activity: Inhibition of Control Specific Binding
Procedure: as §2, §3

COX1(h) = biological target: T7, COX1(h) (Homo sapiens, UniProt P23219); assay: Cerep off-target enzyme inhibition; format: biochemical; settings: 1 micromolar; Enzymatic; read-out: % Activity: Inhibition of Control Specific Binding
T7 construct: Eurofins Cerep (contract assay)
T7 sequence (P23219 24-599): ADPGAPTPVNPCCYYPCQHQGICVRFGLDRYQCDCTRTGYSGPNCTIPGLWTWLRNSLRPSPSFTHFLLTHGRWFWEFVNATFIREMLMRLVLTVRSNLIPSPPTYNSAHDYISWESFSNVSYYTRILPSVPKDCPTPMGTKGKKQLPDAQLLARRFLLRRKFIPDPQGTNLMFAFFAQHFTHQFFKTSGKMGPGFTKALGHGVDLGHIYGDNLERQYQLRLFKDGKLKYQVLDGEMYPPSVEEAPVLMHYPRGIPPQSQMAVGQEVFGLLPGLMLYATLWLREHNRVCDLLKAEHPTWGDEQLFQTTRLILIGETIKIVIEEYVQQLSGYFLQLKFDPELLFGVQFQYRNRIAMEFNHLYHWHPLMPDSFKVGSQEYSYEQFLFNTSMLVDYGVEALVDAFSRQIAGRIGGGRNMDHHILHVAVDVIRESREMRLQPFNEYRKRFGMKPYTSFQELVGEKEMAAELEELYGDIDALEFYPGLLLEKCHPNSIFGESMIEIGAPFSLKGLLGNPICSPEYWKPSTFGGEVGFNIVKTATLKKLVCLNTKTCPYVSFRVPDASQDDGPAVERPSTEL
Procedure: as §2, §3

COX2(h) = biological target: T8, COX2(h) (Homo sapiens, UniProt P35354); assay: Cerep off-target enzyme inhibition; format: biochemical; settings: 1 micromolar; Enzymatic; read-out: % Activity: Inhibition of Control Specific Binding
T8 construct: Eurofins Cerep (contract assay)
Procedure: as §2, §3

Lck kinase (h) = biological target: T9, Lck kinase (h) (Homo sapiens, UniProt P06239); assay: Cerep off-target enzyme inhibition; format: biochemical; settings: 1 micromolar; Enzymatic; read-out: % Activity: Inhibition of Control Specific Binding
T9 construct: Eurofins Cerep (contract assay)
Procedure: as §2, §3

PDE3A (h) = biological target: T10, PDE3A (h) (Homo sapiens, UniProt Q14432); assay: Cerep off-target enzyme inhibition; format: biochemical; settings: 1 micromolar; Enzymatic; read-out: % Activity: Inhibition of Control Specific Binding
T10 construct: Eurofins Cerep (contract assay)
Procedure: as §2, §3

PDE4D2 (h) = biological target: T11, PDE4D2 (h) (Homo sapiens, UniProt Q08499); assay: Cerep off-target enzyme inhibition; format: biochemical; settings: 1 micromolar; Enzymatic; read-out: % Activity: Inhibition of Control Specific Binding
T11 construct: Eurofins Cerep (contract assay)
T11 sequence (Q08499 303-809): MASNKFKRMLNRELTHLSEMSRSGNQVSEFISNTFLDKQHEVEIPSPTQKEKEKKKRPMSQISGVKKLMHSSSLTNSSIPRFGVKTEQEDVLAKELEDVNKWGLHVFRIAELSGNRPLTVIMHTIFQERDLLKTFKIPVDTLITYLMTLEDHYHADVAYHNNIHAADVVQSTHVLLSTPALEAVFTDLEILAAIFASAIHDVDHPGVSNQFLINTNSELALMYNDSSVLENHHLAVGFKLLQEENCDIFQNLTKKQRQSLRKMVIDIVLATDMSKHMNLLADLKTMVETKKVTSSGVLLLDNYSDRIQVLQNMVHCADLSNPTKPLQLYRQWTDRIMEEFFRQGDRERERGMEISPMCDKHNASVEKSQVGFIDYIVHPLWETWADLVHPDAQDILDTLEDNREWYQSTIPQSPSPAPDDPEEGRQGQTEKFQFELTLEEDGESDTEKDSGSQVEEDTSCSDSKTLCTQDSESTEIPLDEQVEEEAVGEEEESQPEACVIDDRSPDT
Procedure: as §2, §3

acetylcholinesterase (h) = biological target: T12, acetylcholinesterase (h) (Homo sapiens, UniProt P22303); assay: Cerep off-target enzyme inhibition; format: biochemical; settings: 1 micromolar; Enzymatic; read-out: % Activity: Inhibition of Control Specific Binding
T12 construct: Eurofins Cerep (contract assay)
T12 sequence (P22303 32-614): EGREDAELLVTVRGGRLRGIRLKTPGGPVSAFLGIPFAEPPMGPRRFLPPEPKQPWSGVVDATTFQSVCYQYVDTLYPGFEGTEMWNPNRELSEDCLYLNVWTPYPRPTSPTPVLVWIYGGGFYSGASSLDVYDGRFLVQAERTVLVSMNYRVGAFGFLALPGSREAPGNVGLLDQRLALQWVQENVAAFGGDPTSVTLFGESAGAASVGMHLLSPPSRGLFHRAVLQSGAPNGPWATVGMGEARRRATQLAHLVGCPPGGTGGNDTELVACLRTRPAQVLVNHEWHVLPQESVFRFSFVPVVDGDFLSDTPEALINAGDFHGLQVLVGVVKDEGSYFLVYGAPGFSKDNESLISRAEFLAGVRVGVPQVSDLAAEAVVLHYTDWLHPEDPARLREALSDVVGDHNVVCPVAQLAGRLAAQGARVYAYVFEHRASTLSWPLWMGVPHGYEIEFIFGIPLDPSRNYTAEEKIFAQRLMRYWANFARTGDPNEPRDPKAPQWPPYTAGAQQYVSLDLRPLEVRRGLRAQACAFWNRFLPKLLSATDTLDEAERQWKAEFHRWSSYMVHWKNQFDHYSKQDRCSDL
Procedure: as §2, §3

SSTR1 = SSTR1 (Homo sapiens, UniProt P30872); assay: Radioligand binding, displacement of 125I-Tyr11-SRIF-14; set-up: host or cells: CHO (Chinese Hamster Ovary) cells, membrane preparation
SSTR1, sequence (P30872 whole entry): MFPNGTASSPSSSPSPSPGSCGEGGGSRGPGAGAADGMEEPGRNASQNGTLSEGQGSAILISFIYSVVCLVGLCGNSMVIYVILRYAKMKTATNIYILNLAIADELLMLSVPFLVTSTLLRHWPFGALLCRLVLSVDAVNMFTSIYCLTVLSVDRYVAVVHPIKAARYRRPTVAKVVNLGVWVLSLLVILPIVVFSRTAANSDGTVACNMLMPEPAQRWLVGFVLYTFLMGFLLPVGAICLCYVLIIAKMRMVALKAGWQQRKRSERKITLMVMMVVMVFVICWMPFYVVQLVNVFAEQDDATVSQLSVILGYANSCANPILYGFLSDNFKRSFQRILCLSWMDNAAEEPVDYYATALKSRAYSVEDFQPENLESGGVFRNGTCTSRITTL
Outline: as §1

SSTR2 = SSTR2 (Homo sapiens, UniProt P30874); assay: as above; set-up: host or cells: CHO (Chinese Hamster Ovary) cells, membrane preparation
SSTR2, sequence (P30874 whole entry): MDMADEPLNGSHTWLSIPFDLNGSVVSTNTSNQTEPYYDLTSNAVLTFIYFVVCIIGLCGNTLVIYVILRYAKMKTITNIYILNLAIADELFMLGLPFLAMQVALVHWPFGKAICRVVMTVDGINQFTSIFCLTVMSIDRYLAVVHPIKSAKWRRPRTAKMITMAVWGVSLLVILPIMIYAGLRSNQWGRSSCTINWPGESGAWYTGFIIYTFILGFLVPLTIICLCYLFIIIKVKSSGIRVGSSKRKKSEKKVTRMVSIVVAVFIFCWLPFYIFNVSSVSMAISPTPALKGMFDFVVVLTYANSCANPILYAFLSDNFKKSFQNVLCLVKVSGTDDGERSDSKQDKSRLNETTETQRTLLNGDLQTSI
Outline: as §1

SSTR3 = SSTR3 (Homo sapiens, UniProt P32745); assay: as above; set-up: host or cells: CHO (Chinese Hamster Ovary) cells, membrane preparation
SSTR3, sequence (P32745 whole entry): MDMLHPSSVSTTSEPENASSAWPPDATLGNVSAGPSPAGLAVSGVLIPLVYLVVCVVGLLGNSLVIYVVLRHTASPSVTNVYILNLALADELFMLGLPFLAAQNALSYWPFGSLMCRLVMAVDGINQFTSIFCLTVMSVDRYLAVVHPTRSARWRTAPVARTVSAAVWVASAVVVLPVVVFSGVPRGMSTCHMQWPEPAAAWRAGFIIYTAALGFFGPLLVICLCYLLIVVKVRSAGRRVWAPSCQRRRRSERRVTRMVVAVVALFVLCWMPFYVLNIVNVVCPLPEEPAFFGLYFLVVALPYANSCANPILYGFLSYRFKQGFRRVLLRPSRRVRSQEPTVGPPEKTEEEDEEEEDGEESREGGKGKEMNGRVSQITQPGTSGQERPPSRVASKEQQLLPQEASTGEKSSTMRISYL
Outline: as §1

Which IC50 (hSSTR-4) does the source give for `C[C@@H](O)[C@@H]1NC(=O)[C@H](CCCCN)NC(=O)[C@@H](Cc2c[nH]c3ccccc23)NC(=O)[C@H](Cc2ccccc2)NC(=O)[C@@H](NC(=O)[C@H](CCCNC(=N)N)NC(=O)[C@@H](Cc2ccccc2)NC(=O)CN2CCN(CC(=O)O)CCN(CC(=O)O)CCN(CC(=O)O)CC2)CSSCCN(CC(N)=O)C(=O)[C@H](Cc2ccccc2)NC1=O` [SEQ ID NO: 3, DOTA-D-Phe^1-Arg^2-Cys^3-Phe^4-D-Trp^5-Lys^6-Thr^7-Phe^8-NTEG^9-NH2 cyclo 3-9] ({DOTA}-[dF]RCF[dW]KTF[N(2-mercaptoethyl)Gly]-NH2; disulfide 3-9) here?
The IC50 was over 1000 nM.

And the Ki (hSSTR-4)?
The Ki was over 1000 nM.

What about the “Hill coefficient (nH)” value (hSSTR-4; hSSTR-4) of the same molecule?
Its value is 1.14.

And the inhibition at 1 µM (5-HT1B (h))?
The inhibition at 1 µM was 1%.

And the inhibition at 1 µM (5-HT2A (h))?
Its inhibition at 1 µM is -2%.

What about the inhibition at 1 µM (5-HT2B (h)) of the same molecule?
The inhibition at 1 µM was -31%.

And the inhibition at 1 µM (5-HT3 (h))?
The inhibition at 1 µM was 1%.

What about the inhibition at 1 µM (CB2 (h)) of the same molecule?
The inhibition at 1 µM was -1%.

And the inhibition at 1 µM (CCK1 (CCKA) (h))?
The inhibition at 1 µM was -15%.

And the inhibition at 1 µM (D2S (h))?
Its inhibition at 1 µM is 3%.

And the inhibition at 1 µM (ETA (h))?
Its inhibition at 1 µM is -3%.

And the inhibition at 1 µM (M1 (h))?
Its inhibition at 1 µM is -3%.

What about the inhibition at 1 µM [1] of the same molecule?
Its inhibition at 1 µM is -4%.

And the inhibition at 1 µM (beta 1 (h))?
Its inhibition at 1 µM is 5%.

And the inhibition at 1 µM (beta 2 (h))?
The inhibition at 1 µM was -6%.

And the inhibition at 1 µM (dopamine transporter (h))?
The inhibition at 1 µM was 12%.

What about the inhibition at 1 µM (kappa (h) (KOP)) of the same molecule?
Its inhibition at 1 µM is 10%.

What about the inhibition at 1 µM (COX1(h)) of the same molecule?
Its inhibition at 1 µM is 9%.

And the inhibition at 1 µM (COX2(h))?
Its inhibition at 1 µM is 18%.

And the inhibition at 1 µM (Lck kinase (h))?
The inhibition at 1 µM was -4%.

And the inhibition at 1 µM (PDE3A (h))?
Its inhibition at 1 µM is 0%.

What about the inhibition at 1 µM (PDE4D2 (h)) of the same molecule?
Its inhibition at 1 µM is -2%.

And the inhibition at 1 µM (acetylcholinesterase (h))?
The inhibition at 1 µM was 6%.

And the IC50 (SSTR1)?
Its IC50 is 310 nM.

What about the Ki (SSTR1) of the same molecule?
The Ki was 260 nM.

And the “Hill coefficient (nH)” value (SSTR1; hSSTR-1)?
The value was 0.86.

And the IC50 (SSTR2)?
Its IC50 is 590 nM.

And the Ki (SSTR2)?
Its Ki is 310 nM.

And the “Hill coefficient (nH)” value (SSTR2; hSSTR-2)?
Its value is 1.62.

What about the IC50 (SSTR3) of the same molecule?
Its IC50 is 0.83 nM.

And the Ki (SSTR3)?
The Ki was 0.28 nM.

What about the “affinity and selectivity to SSTR3 (in words)” value (SSTR3; binding data, listed as DOTA conjugate of SEQ ID NO: 1) of the same molecule?
The value was “did not interfere with the binding affinity and selectivity of SEQ ID NO: 1”.

What about the “Hill coefficient (nH)” value (SSTR3; hSSTR-3) of the same molecule?
The value was 1.15.
